Measurements as given in ChEMBL document CHEMBL5331076, “Streptogramin A derivatives as mitochondrial translation inhibitors to suppress glioblastoma stem cell growth” (Eur J Med Chem, 2023).
Calls of active or inactive are those of the source. The calls are words filed in the database; no cut-off is given here. *1 amine or outer side, *2 acyl side, *3 side chain or, on linkers, in order; H or OH if unused. Where a SMILES comes first, the peptide text is derived from it. Bridges are numbered along the chain shown (N, C = ends). [ ]: non-standard residue; d: D form. The star is where a group is joined. X1 = O=C1C[C@@H](C(=O)[*:2])N([*:1])C[C@H]1CS[C@@H]1CN2CCC1CC2; NMePhe(4-NMe2) = CN[C@@H](Cc1ccc(N(C)C)cc1)C(=O)O; Picolinoyl(3-OH) = O=C(c1ncccc1O)*; Phg = N[C@H](C(=O)O)c1ccccc1; dAbu = CC[C@@H](N)C(=O)O

Legend:
[1] = system: COMI; experiment: Inhibition of mitochondrial translation in human COMI cells assessed as increase in COX4 expression level at 0.5 to 5 uM incubated for 48 hrs by immunoblotting analysis; assay type: functional, cell-based; details: dose 0.5-5 µM
[2] = system: COMI; experiment: Inhibition of mitochondrial translation in human COMI cells assessed as decrease in ND3 expression level at 0.5 uM incubated for 24 hrs in the presence of quinupristin and emetine by [35S]-methionine labelling based SDS-PAGE analysis; assay type: functional, cell-based
[3] = system: COMI; experiment: Inhibition of mitochondrial translation in human COMI cells assessed as decrease in COX1 expression level at 0.5 uM incubated for 24 hrs in the presence of quinupristin and emetine by [35S]-methionine labelling based SDS-PAGE analysis; assay type: functional, cell-based
[4] = system: COMI; experiment: Growth inhibition of human COMI cells incubated for 48 hrs by Hoechst 33342/PI staining based analysis; assay type: functional
[5] = system: COMI; experiment: Potency index, ratio of temozolomide GI50 to test compound GI50 for human COMI cells in the presence of quinupristin; assay type: functional
[6] = system: COMI; experiment: Growth inhibition of human COMI cells in the presence of quinupristin; assay type: functional
[7] = system: VIPI; experiment: Growth inhibition of human VIPI cells in the presence of quinupristin; assay type: functional
[8] = system: COMI; experiment: Inhibition of mitochondrial translation in human COMI cells assessed as decrease in ND3 expression level at 0.5 to 5 uM incubated for 48 hrs by immunoblotting analysis; assay type: functional, cell-based; details: dose 0.5-5 µM
[9] = Potency index, ratio of temozolomide GI50 to test compound GI50 for human VIPI cells in the presence of quinupristin; assay type: functional
[10] = system: VIPI; experiment: Growth inhibition of human VIPI cells incubated for 48 hrs by Hoechst 33342/PI staining based analysis; assay type: functional
[11] = system: COMI; experiment: Inhibition of mitochondrial translation in human COMI cells assessed as decrease in COX1 expression level at 0.5 to 5 uM incubated for 48 hrs by immunoblotting analysis; assay type: functional, cell-based; details: dose 0.5-5 µM
[12] = system: COMI; experiment: Inhibition of mitochondrial translation in human COMI cells assessed as decrease in COX1 expression level at 0.5 to 5 uM incubated for 48 hrs in the presence of quinupristin by immunoblotting analysis; assay type: functional, cell-based; details: dose 0.5-5 µM
[13] = system: COMI; experiment: Inhibition of mitochondrial translation in human COMI cells assessed as increase in COX4 expression level at 0.5 to 5 uM incubated for 48 hrs in the presence of quinupristin by immunoblotting analysis; assay type: functional, cell-based; details: dose 0.5-5 µM
[14] = system: COMI; experiment: Inhibition of mitochondrial translation in human COMI cells assessed as decrease in COX2 expression level at 0.5 to 5 uM incubated for 48 hrs in the presence of quinupristin by immunoblotting analysis; assay type: functional, cell-based; details: dose 0.5-5 µM
[15] = system: VIPI; experiment: Growth inhibition of human VIPI cells incubated for 48 hrs in the presence of quinupristin by Hoechst 33342/PI staining based analysis; assay type: functional
[16] = system: COMI; experiment: Inhibition of mitochondrial translation in human COMI cells assessed as decrease in COX2 expression level at 0.38 uM incubated for 24 hrs in the presence of emetine by [35S]-methionine labelling based SDS-PAGE analysis; assay type: functional, cell-based
[17] = system: COMI; experiment: Inhibition of mitochondrial translation in human COMI cells assessed as decrease in COX2 expression level at 0.5 uM incubated for 24 hrs in the presence of quinupristin and emetine by [35S]-methionine labelling based SDS-PAGE analysis; assay type: functional, cell-based
[18] = system: COMI; experiment: Inhibition of mitochondrial translation in human COMI cells assessed as decrease in COX1 expression level at 0.38 uM incubated for 24 hrs in the presence of emetine by [35S]-methionine labelling based SDS-PAGE analysis; assay type: functional, cell-based
[19] = system: COMI; experiment: Inhibition of mitochondrial translation in human COMI cells assessed as decrease in COX2 expression level at 0.5 to 5 uM incubated for 48 hrs by immunoblotting analysis; assay type: functional, cell-based; details: dose 0.5-5 µM
[20] = system: COMI; experiment: Growth inhibition of human COMI cells incubated for 48 hrs in the presence of quinupristin by Hoechst 33342/PI staining based analysis; assay type: functional
[21] = system: COMI; experiment: Inhibition of mitochondrial translation in human COMI cells assessed as decrease in ND3 expression level at 0.38 uM incubated for 24 hrs in the presence of emetine by [35S]-methionine labelling based SDS-PAGE analysis; assay type: functional, cell-based
[22] = system: COMI; experiment: Inhibition of mitochondrial translation in human COMI cells assessed as decrease in ND3 expression level at 0.5 to 5 uM incubated for 48 hrs in the presence of quinupristin by immunoblotting analysis; assay type: functional, cell-based; details: dose 0.5-5 µM
[23] = Potency index, ratio of temozolomide GI50 to test compound GI50 for human VIPI cells in the presence of dalfopristin; assay type: functional
[24] = system: COMI; experiment: Growth inhibition of human COMI cells in the presence of dalfopristin; assay type: functional
[25] = system: COMI; experiment: Inhibition of mitochondrial translation in human COMI cells assessed as decrease in ND3 expression level at 0.38 to 2 uM incubated for 24 hrs in the presence of emetine by [35S]-methionine labelling based SDS-PAGE analysis; assay type: functional, cell-based; details: dose 0.38-2 µM
[26] = system: COMI; experiment: Inhibition of mitochondrial translation in human COMI cells assessed as decrease in COX1 expression level at 0.38 to 2 uM incubated for 24 hrs in the presence of emetine by [35S]-methionine labelling based SDS-PAGE analysis; assay type: functional, cell-based; details: dose 0.38-2 µM
[27] = system: VIPI; experiment: Growth inhibition of human VIPI cells incubated for 48 hrs in the presence of dalfopristin by Hoechst 33342/PI staining based analysis; assay type: functional
[28] = system: COMI; experiment: Growth inhibition of human COMI cells incubated for 48 hrs in the presence of dalfopristin by Hoechst 33342/PI staining based analysis; assay type: functional
[29] = system: COMI; experiment: Inhibition of mitochondrial translation in human COMI cells assessed as decrease in COX1 expression level at 0.5 uM incubated for 24 hrs in the presence of dalfopristin and emetine by [35S]-methionine labelling based SDS-PAGE analysis; assay type: functional, cell-based
[30] = system: COMI; experiment: Potency index, ratio of temozolomide GI50 to test compound GI50 for human COMI cells in the presence of dalfopristin; assay type: functional
[31] = system: VIPI; experiment: Growth inhibition of human VIPI cells in the presence of dalfopristin; assay type: functional
[32] = system: COMI; experiment: Inhibition of mitochondrial translation in human COMI cells assessed as decrease in ND3 expression level at 0.5 to 5 uM incubated for 48 hrs in the presence of dalfopristin by immunoblotting analysis; assay type: functional, cell-based; details: dose 0.5-5 µM
[33] = system: COMI; experiment: Inhibition of mitochondrial translation in human COMI cells assessed as decrease in COX1 expression level at 0.5 to 5 uM incubated for 48 hrs in the presence of dalfopristin by immunoblotting analysis; assay type: functional, cell-based; details: dose 0.5-5 µM
[34] = system: COMI; experiment: Inhibition of mitochondrial translation in human COMI cells assessed as decrease in COX2 expression level at 0.5 uM incubated for 24 hrs in the presence of dalfopristin and emetine by [35S]-methionine labelling based SDS-PAGE analysis; assay type: functional, cell-based
[35] = system: COMI; experiment: Inhibition of mitochondrial translation in human COMI cells assessed as decrease in COX2 expression level at 0.38 to 2 uM incubated for 24 hrs in the presence of emetine by [35S]-methionine labelling based SDS-PAGE analysis; assay type: functional, cell-based; details: dose 0.38-2 µM
[36] = system: COMI; experiment: Inhibition of mitochondrial translation in human COMI cells assessed as increase in COX4 expression level at 0.5 to 5 uM incubated for 48 hrs in the presence of dalfopristin by immunoblotting analysis; assay type: functional, cell-based; details: dose 0.5-5 µM
[37] = system: COMI; experiment: Inhibition of mitochondrial translation in human COMI cells assessed as decrease in ND3 expression level at 0.5 uM incubated for 24 hrs in the presence of dalfopristin and emetine by [35S]-methionine labelling based SDS-PAGE analysis; assay type: functional, cell-based
[38] = system: COMI; experiment: Inhibition of mitochondrial translation in human COMI cells assessed as decrease in COX2 expression level at 0.5 to 5 uM incubated for 48 hrs in the presence of dalfopristin by immunoblotting analysis; assay type: functional, cell-based; details: dose 0.5-5 µM

Question: Which inhibition [1] does the source give for CCN(CC)CCS(=O)(=O)[C@@H]1CCN2C(=O)c3coc(n3)CC(=O)C[C@H](O)/C=C(C)/C=C/CNC(=O)/C=C/[C@@H](C)[C@@H](C(C)C)OC(=O)[C@@H]12 [DALFOPRISTIN] here?
Answer: The inhibition was “Active”.

Question: And the inhibition [2]?
Answer: Its inhibition is “Active”.

Question: And the inhibition [3]?
Answer: The inhibition was “Active”.

Question: What about the GI50 [4] of the same compound?
Answer: The GI50 was 8.6 µM.

Question: And the RatioGI50 [5]?
Answer: The RatioGI50 was 15.

Question: What about the GI50 [6] of the same compound?
Answer: The GI50 was 6.5 µM.

Question: What about the GI50 [7] of the same compound?
Answer: Its GI50 is 20.2 µM.

Question: What about the inhibition [8] of the same compound?
Answer: The inhibition was “Active”.

Question: What about the RatioGI50 [9] of the same compound?
Answer: Its RatioGI50 is 15.

Question: And the GI50 [10]?
Answer: The GI50 was 16.2 µM.

Question: And the inhibition [11]?
Answer: The inhibition was “Active”.

Question: And the inhibition [12]?
Answer: The inhibition was “Active”.

Question: What about the inhibition [13] of the same compound?
Answer: Its inhibition is “Active”.

Question: And the inhibition [14]?
Answer: The inhibition was “Active”.

Question: What about the GI50 [15] of the same compound?
Answer: The GI50 was 20.2 µM.

Question: And the inhibition [16]?
Answer: Its inhibition is “Active”.

Question: And the inhibition [17]?
Answer: Its inhibition is “Active”.

Question: And the inhibition [18]?
Answer: The inhibition was “Active”.

Question: And the inhibition [19]?
Answer: The inhibition was “Active”.

Question: And the GI50 [20]?
Answer: The GI50 was 6.5 µM.

Question: And the inhibition [21]?
Answer: The inhibition was “Active”.

Question: And the inhibition [22]?
Answer: Its inhibition is “Active”.

Question: Which results are given for CC[C@H]1NC(=O)[C@@H](NC(=O)c2ncccc2O)[C@@H](C)OC(=O)[C@H](c2ccccc2)NC(=O)[C@@H]2CC(=O)[C@H](CS[C@@H]3CN4CCC3CC4)CN2C(=O)[C@H](Cc2ccc(N(C)C)cc2)N(C)C(=O)[C@@H]2CCCN2C1=O [QUINUPRISTIN] ({Picolinoyl(3-OH)}-T[dAbu]P[NMePhe(4-NMe2)][X1][Phg]; ester 1-C)?
Answer: inhibition [1]: inactive; RatioGI50 [23]: 15; GI50 [4]: 3 µM; GI50 [24]: 6.5 µM; inhibition [8]: inactive; inhibition [25]: inactive; inhibition [26]: inactive; GI50 [27]: 20.2 µM; GI50 [28]: 6.5 µM; inhibition [29]: Active; GI50 [10]: 21.4 µM; inhibition [11]: inactive; RatioGI50 [30]: 15; GI50 [31]: 20.2 µM; inhibition [32]: Active; inhibition [33]: Active; inhibition [34]: Active; inhibition [35]: inactive; inhibition [19]: inactive; inhibition [36]: Active; inhibition [37]: Active; inhibition [38]: Active
